From PubChem BioAssay AID248 (DTP/NCI, 2004)
Where “and” joins values, the source holds several entries; their conditions need not be identical. Equal values may be shown once. Inconclusive results and toxic doses are left out. Cut-off read from the data, not from the text of the source: active = T/C of 150% or more; inactive = T/C below 125%.

Tested on: L1210 leukemia ip in BDF1 mice, survival T/C
Test: NCI In Vivo Anticancer Drug Screen. Data for tumor model L1210 Leukemia (intraperitoneal) in B6D2F1 (BDF1) mice
Settings: endpoint: mean survival time, higher = longer survival
In short: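 In this screen, tumor-bearing mice given compound are compared to those given vehicle, and their survival values are reported as a treated-to-control quotient.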

[1] = dose: 100.0 mg/kg/injection, schedule: Q04DX003 (ip), vehicle: saline with Tween-80
[2] = dose: 200.0 mg/kg/injection, schedule: Q04DX003 (ip), vehicle: saline with Tween-80
[3] = dose: 400.0 mg/kg/injection, schedule: Q04DX003 (ip), vehicle: saline with Tween-80
[4] = dose: 100.0 mg/kg/injection, schedule: Q04DX002 (ip), vehicle: saline with Tween-80
[5] = dose: 200.0 mg/kg/injection, schedule: Q04DX002 (ip), vehicle: saline with Tween-80
[6] = dose: 400.0 mg/kg/injection, schedule: Q04DX002 (ip), vehicle: saline with Tween-80
[7] = dose: 100.0 mg/kg/injection, schedule: Q01DX009 (ip), vehicle: saline with Tween-80
[8] = dose: 200.0 mg/kg/injection, schedule: Q01DX009 (ip), vehicle: saline with Tween-80
[9] = dose: 100.0 mg/kg/injection, schedule: Q01DX001 (ip), vehicle: Klucel (hydroxypropylcellulose) (HPC)
[10] = dose: 100.0 mg/kg/injection, schedule: Q01DX001 (ip), vehicle: carboxymethylcellulose (CMC)
[11] = dose: 200.0 mg/kg/injection, schedule: Q01DX001 (ip), vehicle: carboxymethylcellulose (CMC)
[12] = dose: 400.0 mg/kg/injection, schedule: Q01DX001 (ip), vehicle: carboxymethylcellulose (CMC)
[13] = dose: 10.0 mg/kg/injection, schedule: Q01DX001 (ip), vehicle: saline
[14] = dose: 200.0 mg/kg/injection, schedule: Q01DX001 (ip), vehicle: Klucel (hydroxypropylcellulose) (HPC)
[15] = dose: 400.0 mg/kg/injection, schedule: Q01DX001 (ip), vehicle: Klucel (hydroxypropylcellulose) (HPC)
[16] = dose: 50.0 mg/kg/injection, schedule: Q01DX001 (ip), vehicle: carboxymethylcellulose (CMC)

Measured: T/C

COc1cc(CCCc2ccc(O)c(=O)cc2)cc(OC)c1OC
inactive: [1] 111 % of control | [2] 94 % of control | [3] 94 % of control

CSc1ccc(NC(=O)C2CCCCC2C(=O)O)cc1 (stereo not given)
inactive: dose: 100.0 mg/kg/injection, schedule: Q04DX002 (ip), vehicle: Klucel (hydroxypropylcellulose) (HPC) 92 % of control | dose: 200.0 mg/kg/injection, schedule: Q04DX002 (ip), vehicle: Klucel (hydroxypropylcellulose) (HPC) 111 % of control | dose: 400.0 mg/kg/injection, schedule: Q04DX002 (ip), vehicle: Klucel (hydroxypropylcellulose) (HPC) 96 % of control

O=S(=O)(c1ccccc1)n1c(C(O)c2cccnc2)cc2ccccc21 (stereo not given)
inactive: [4] 93 % of control | [5] 100 % of control | [6] 90 % of control

C1CCC2C(C1)CCCC2CC1CCCC2CCCCC21 (stereo not given)
inactive: dose: 75.0 mg/kg/injection, schedule: Q01DX001 (ip), vehicle: acetone 100 % of control | dose: 150.0 mg/kg/injection, schedule: Q01DX001 (ip), vehicle: acetone 106 % of control | dose: 300.0 mg/kg/injection, schedule: Q01DX001 (ip), vehicle: acetone 100 % of control

O=C(NC(=S)Nc1cccc(O)c1)c1cccc([N+](=O)[O-])c1
inactive: dose: 100.0 mg/kg/injection, schedule: Q01DX001 (ip), vehicle: saline with Tween-80 93 % of control | [7] 94 % of control and 87 % of control | [4] 98 % of control and 101 % of control | [1] 89 % of control | dose: 200.0 mg/kg/injection, schedule: Q01DX001 (ip), vehicle: saline with Tween-80 97 % of control | [8] 93 % of control and 105 % of control | [5] 96 % of control and 109 % of control | [2] 109 % of control | dose: 400.0 mg/kg/injection, schedule: Q01DX001 (ip), vehicle: saline with Tween-80 103 % of control | dose: 400.0 mg/kg/injection, schedule: Q01DX009 (ip), vehicle: saline with Tween-80 94 % of control | [6] 101 % of control | [3] 94 % of control

O=C(c1ccc(O)cc1)c1ccc(O)cc1O
inactive: dose: 100.0 mg/kg/injection, schedule: Q01DX009 (ip), vehicle: saline sonified 93 % of control | dose: 200.0 mg/kg/injection, schedule: Q01DX009 (ip), vehicle: saline sonified 98 % of control | dose: 400.0 mg/kg/injection, schedule: Q01DX009 (ip), vehicle: saline sonified 98 % of control

CCn1/c(=N\N=O)sc2ccccc21
inactive: [9] 96 % of control

O=c1[nH]c2c(Cl)cc(Cl)cc2c2ccccc12
inactive: [10] 87 % of control | [11] 92 % of control | [12] 100 % of control

CCc1c(C)[nH]c2c1C(=O)CCC2
inactive: [13] 98 % of control | dose: 20.0 mg/kg/injection, schedule: Q01DX001 (ip), vehicle: saline 100 % of control | dose: 40.0 mg/kg/injection, schedule: Q01DX001 (ip), vehicle: saline 105 % of control

CC(=O)Nc1cc2c(cc1[N+](=O)[O-])-c1ccc(F)cc1C2=O
inactive: [10] 100 % of control | [11] 96 % of control | [12] 99 % of control

O=C1NC(=O)C2(CCN(c3ccccc3)CC2)C(=O)N1
inactive: dose: 100.0 mg/kg/injection, schedule: Q01DX001 (ip), vehicle: saline 94 % of control | dose: 200.0 mg/kg/injection, schedule: Q01DX001 (ip), vehicle: saline 96 % of control | dose: 400.0 mg/kg/injection, schedule: Q01DX001 (ip), vehicle: saline 96 % of control

CSc1ccnc2[nH]ncc12
inactive: dose: 100.0 mg/kg/injection, schedule: Q04DX002 (ip), vehicle: DMSO 94 % of control | dose: 200.0 mg/kg/injection, schedule: Q04DX002 (ip), vehicle: DMSO 105 % of control

CC(=O)Nc1cc(N(CCOS(C)(=O)=O)CCOS(C)(=O)=O)ccc1N=O
inactive: dose: 0.05 mg/kg/injection, schedule: Q01DX015 (ip), vehicle: saline 114 % of control | dose: 0.1 mg/kg/injection, schedule: Q01DX015 (ip), vehicle: saline 123 % of control | dose: 0.2 mg/kg/injection, schedule: Q01DX015 (ip), vehicle: saline 114 % of control | dose: 0.4 mg/kg/injection, schedule: Q01DX015 (ip), vehicle: saline 114 % of control | dose: 1.0 mg/kg/injection, schedule: Q01DX015 (ip), vehicle: saline 121 % of control | dose: 1.7 mg/kg/injection, schedule: Q01DX015 (ip), vehicle: saline 119 % of control | dose: 7.5 mg/kg/injection, schedule: Q01DX001 (ip), vehicle: saline 113 % of control | [13] 124 % of control

CC(CCl)=C(B1OC(C)(C)C(C)(C)O1)B1OC(C)(C)C(C)(C)O1
inactive: [9] 110 % of control | [14] 94 % of control | [15] 92 % of control

Nc1nc(Cl)c(N=Nc2ccccc2)c(=O)[nH]1
inactive: dose: 25.0 mg/kg/injection, schedule: Q01DX009 (ip), vehicle: carboxymethylcellulose (CMC) 97 % of control and 98 % of control | dose: 50.0 mg/kg/injection, schedule: Q01DX009 (ip), vehicle: carboxymethylcellulose (CMC) 93 % of control and 90 % of control | [10] 95 % of control and 102 % of control | dose: 100.0 mg/kg/injection, schedule: Q04DX002 (ip), vehicle: carboxymethylcellulose (CMC) 97 % of control and 89 % of control | dose: 100.0 mg/kg/injection, schedule: Q04DX003 (ip), vehicle: carboxymethylcellulose (CMC) 100 % of control and 108 % of control | [11] 98 % of control and 109 % of control | dose: 200.0 mg/kg/injection, schedule: Q04DX002 (ip), vehicle: carboxymethylcellulose (CMC) 93 % of control | dose: 200.0 mg/kg/injection, schedule: Q04DX003 (ip), vehicle: carboxymethylcellulose (CMC) 106 % of control and 113 % of control | [12] 95 % of control and 98 % of control | dose: 400.0 mg/kg/injection, schedule: Q04DX002 (ip), vehicle: carboxymethylcellulose (CMC) 93 % of control and 98 % of control | dose: 400.0 mg/kg/injection, schedule: Q04DX003 (ip), vehicle: carboxymethylcellulose (CMC) 100 % of control and 106 % of control

CC(=O)NCC(=O)c1ccc(S(=O)(=O)c2ccccc2)cc1
inactive: [16] 104 % of control | [10] 98 % of control | [11] 96 % of control | [12] 98 % of control

C/C=C(C)/C=N/Nc1nnc(N/N=C/C(C)=C/C)c2ccccc12
inactive: [16] 95 % of control | [10] 95 % of control | [11] 103 % of control

C[N+]1(CCCNC2=CC(=O)C=CC2=O)CCCC1
inactive: dose: 0.5 mg/kg/injection, schedule: Q01DX001 (ip), vehicle: saline 108 % of control

Clc1ccc2c(c1)C(=P(c1ccccc1)(c1ccccc1)c1ccccc1)c1cc(Cl)cc(Cl)c1-2
inactive: [9] 96 % of control | dose: 100.0 mg/kg/injection, schedule: Q04DX003 (ip), vehicle: Klucel (hydroxypropylcellulose) (HPC) 102 % of control | [14] 96 % of control | dose: 200.0 mg/kg/injection, schedule: Q04DX003 (ip), vehicle: Klucel (hydroxypropylcellulose) (HPC) 95 % of control | [15] 91 % of control | dose: 400.0 mg/kg/injection, schedule: Q04DX003 (ip), vehicle: Klucel (hydroxypropylcellulose) (HPC) 93 % of control

O=[N+]([O-])c1ccc(NCCO)c([N+](=O)[O-])c1
inactive: [7] 98 % of control | [1] 88 % of control | [8] 106 % of control | [2] 97 % of control | [3] 88 % of control

COc1c(Cl)cc2c(c1OC)N(C)C1N3C(=O)C4(C)SSC3(CC21O)C(=O)N4C (stereo not given)
inactive: dose: 0.12 mg/kg/injection, schedule: Q01DX009 (ip), vehicle: Klucel (hydroxypropylcellulose) (HPC) 100 % of control | dose: 0.25 mg/kg/injection, schedule: Q01DX009 (ip), vehicle: Klucel (hydroxypropylcellulose) (HPC) 101 % of control | dose: 0.5 mg/kg/injection, schedule: Q01DX009 (ip), vehicle: Klucel (hydroxypropylcellulose) (HPC) 108 % of control | dose: 1.0 mg/kg/injection, schedule: Q01DX009 (ip), vehicle: Klucel (hydroxypropylcellulose) (HPC) 111 % of control

CC(=O)NC1COC(O)C(O)C1O (stereo not given)
inactive: dose: 100.0 mg/kg/injection, schedule: Q04DX003 (ip), vehicle: saline 94 % of control | dose: 200.0 mg/kg/injection, schedule: Q04DX003 (ip), vehicle: saline 101 % of control | dose: 400.0 mg/kg/injection, schedule: Q04DX003 (ip), vehicle: saline 101 % of control
